Data: US20240043661A1, “CYCLODEXTRIN DIMERS AND USES THEREOF” (UNDERDOG PHARMACEUTICALS, INC., priority 2020, published 2024)

How the values were obtained:
[1] = In vitro solubility assay (turbidity assay) with cholesterol; type: physicochemical; conditions: 300 μM sterol, 3% ethanol in PBS, 30 mins at 37C, absorbance at 350 nm
Description: (§1) Greater affinity for one compound than another, e.g., greater affinity for 7KC than cholesterol, may be determined using a “turbidity test” performed on an aqueous suspension containing 3% ethanol, 300 uM sterol, in PBS and 1 mM of the CD to be tested. This single concentration of CD is used in order to standardize the test results. To perform the test, the samples are incubated for 30 mins at 37C, and then absorbance at 350 nm is measured, e.g., using a spectrophotometer plate reader. Relative turbidity is determined by dividing the measured turbidity in the presence of the CD to the baseline turbidity without the CD. A given CD has greater affinity for 7KC than cholesterol if the relative turbidity of the 7KC suspension is lower than the relative turbidity of the cholesterol solution.
(§2) Sterol stock solutions (including cholesterol and 7KC) were suspended in 100% ethanol. Final concentration of suspensions: 3% ethanol, 300 μM sterol, in PBS with various concentrations of CDs.

[2] = In vitro solubility assay (turbidity assay) with 7KC; type: physicochemical; conditions: 300 μM sterol, 3% ethanol in PBS, 30 mins at 37C, absorbance at 350 nm
Description: as §1, §2

With `OC[C@H]1O[C@@H]2O[C@H]3[C@H](O)[C@@H](O)[C@@H](O[C@H]4[C@H](O)[C@@H](O)[C@@H](O[C@H]5[C@H](O)[C@@H](O)[C@@H](O[C@H]6[C@H](O)[C@@H](O)[C@@H](O[C@H]7[C@H](O)[C@@H](O)[C@@H](O[C@H]1[C@H](O)[C@H]2O)O[C@@H]7CO)O[C@@H]6CO)O[C@@H]5CO)O[C@@H]4CO)O[C@@H]3CO` [native αCD] the “solubilization / binding of cholesterol (turbidity)” value [1] was “low affinity for 7KC and cholesterol”, the “solubilization / binding of 7KC (turbidity)” value [2] was “low affinity for 7KC and cholesterol” and the “specificity for 7KC over cholesterol (turbidity)” value [2] was “no specificity”.
